Measured values from patent US8859021B2, “Skin appearance through gene manipulation” (Sytheon, priority 2007, dated 2014).
Read-outs that look alike come from different tables or passages of the source.

Tested on: EpiDerm tissues
Details: retinol 10 μg/ml, Sytenol A 5 μg/ml, 2 days, vs 0.1% DMSO control

Structure (SMILES): CC1=C(/C=C/C(C)=C/C=C/C(C)=C/CO)C(C)(C)CCC1 [Retinol, retinol]
- Fold Change, ACTN1 Alpha-actinin-1 (Alpha-actinin cytoskeletal isoform) (Table 8): +3.11 fold
- Fold Change, ACTN1 Alpha-actinin-1 (Alpha-actinin cytoskeletal isoform) (Table 9): +3.11 fold
- Fold Change, ACTN4 Alpha-actinin-4(F-actin cross-linking protein) (Table 8): +2.99 fold
- Fold Change, ACTN4 Alpha-actinin-4(F-actin cross-linking protein) (Table 9): +2.99 fold
- Fold Change, AFAP1L2 Actin filament-associated protein 1-like 2: +2.84 fold
- Fold Change, C16orf30 Claudin-like protein 24: −2.23 fold
- Fold Change, CDH1 Epithelia-cadherin precursor (E-cadherin) (Table 7): +9.39 fold
- Fold Change, CDH1 Epithelial-cadherin precursor (E-cadherin) E-Cad/CTF1 (Table 9): +9.39 fold
- Fold Change, CDH3 Cadherin-3-precursor (P-cadherin): +3.99 fold
- Fold Change, CDH19 Cadherin-19-precursor: −4.11 fold
- Fold Change, CDH24 Cadherin-24-precursor: +2.06 fold
- Fold Change, CDK5R1 Tau protein kinase II 23 kDa subunit (Cyclin-dependent kinase 5 activator 1 precursor (CDK5 activator 1)): +2.17 fold
- Fold Change, CLDN4 Claudin-4 (Clostridium perfringens enterotoxin receptor) (CPE-R): +3.63 fold
- Fold Change, CLDN5 Claudin-5 (Transmembrane protein deleted in VCFS): −3.66 fold
- Fold Change, CLDN6 Claudin-6 (Skullin 2): +2.59 fold
- Fold Change, CLDN7 Claudin-7 (CLDN-7): +25.30 fold
- Fold Change, CLDN11 Claudin-11 (Oligodendrocyte-specific protein): −2.86 fold
- Fold Change, CLDN12 Claudin-12: +3.73 fold
- Fold Change, CLDN16 Claudin-16 (Paracellin-1) (PCLN-1): +7.79 fold
- Fold Change, COL1A2 Collagen alpha-2 (I) chain precursor (Alpa-2 type I collagen): +3.31 fold
- Fold Change, COL3A1 Collagen alpha-1 (III) chain precursor: −2.36 fold
- Fold Change, COL4A6 Collagen alpha-6 (IV) chain precursor: +6.41 fold
- Fold Change, COL9A2 Collagen alpha-2 (IX) chain precursor: +5.56 fold
- Fold Change, COL9A3 Collagen alpha-3 (IX) chain precursor: +4.05 fold
- Fold Change, COL17A1 Collagen alpha-1 (XVII) chain precursor: +3.5 fold
- Fold Change, CRABP1 Cellular retinoic acid-binding protein 1: +2.83 fold
- Fold Change, CTHRC1 Collagen triple helix repeat-containing protein 1 precursor: −18.94 fold
- Fold Change, CTNNAL1 Alpha-catenin-related protein (ACRP) (Table 8): −2.60 fold
- Fold Change, CTNNAL1 Alpha-catenin-related protein (ACRP) (Table 9): −2.04 fold
- Fold Change, CYP26B1 Cytochrome P450 26B1 (Retinoic acid-metabolizing cytochrome): +1.87 fold
- Fold Change, Connective tissue growth factor precursor (Hypertrophic chondrocyte-specific protein 24): −4.61 fold
- Fold Change, DHRS9 NADP-dependent retinol dehydrogenase/reductase: +5.48 fold
- Fold Change, DSC1 Desmocollin-1-precursor (DG2/DG3): −7.49 fold
- Fold Change, DSC2 Desmocollin-2-precursor (Desmocollin-3): +3.71 fold
- Fold Change, DSG1 Desmoglein-1-precursor (DG1): −2.30 fold
- Fold Change, DSG2 Desmoglein-2-precursor: +13.03 fold
- Fold Change, DSG3 Desmoglein-3-precursor: +2.35 fold
- Fold Change, DSG4 Desmoglein-4-precursor: No effect
- Fold Change, ECM1 Extracellular matrix protein 1 precursor: No effect
- Fold Change, ECM2 Extracellular matrix protein 2 precursor: +4.98 fold
- Fold Change, ELA3B Elastase-3B precursor (Elastase IIIB): +5.89 fold
- Fold Change, F11R Junctional adhesion molecule 1 (JAM-1): +5.77 fold
- Fold Change, FLNB Actin-binding-like protein: +3.89 fold
- Fold Change, FLRT2 Fibronectin-like-domain-containing leucine-rich transmembrane protein 2: −2.67 fold
- Fold Change, FLRT3 Fibronectin-like-domain-containing leucine-rich transmembrane protein 3: +2.77 fold
- Fold Change, FNDC7 Fibronectin type III domain containing 7: No effect
- Fold Change, Fibroblast growth factor 9 (HBGF-9): −12.36 fold
- Fold Change, Fibroblast growth factor 23 precursor (FGF-23) (Tumor-derived hypophosphatemia-inducing factor): −9.78 fold
- Fold Change, Fibroblast growth factor receptor 2 precursor (FGFR-2): +6.50 fold
- Fold Change, Fibroblast growth factor-binding protein 1 precursor (FGF-BP1): +3.51 fold
- Fold Change, GSN Gelsolin precursor (Actin-depolymerizing factor) (ADF): +3.47 fold
- Fold Change, HAS2 Hyaluronan synthase 2: −3.48 fold
- Fold Change, HAS3 Hyaluronan synthase 3: +10.88 fold
- Fold Change, HS3ST1 Heparan sulfate 3-O-sulfotransferase 1 (Table 6): +8.65 fold
- Fold Change, HS3ST1 Heparan sulfate glucosamine 3-O-sulfotransferase 1 precursor (Heparan sulfate 3-O-sulfotransferase 1) (Table 3): +8.65 fold
- Fold Change, HS6ST1 Heparan sulfate 6-O-sulfotransferase 1: +2.26 fold
- Fold Change, HYAL1 Hyaluronidase-1-precursor: +2.16 fold
- Fold Change, Heparin-binding EGF-like growth factor precursor (HB-EGF): +3.89 fold
- Fold Change, IGSF1 Immunoglobulin superfamily, member 1 isoform 1: +3.11 fold
- Fold Change, IGSF3 Immunoglobulin superfamily, member 3 isoform 2: +5.81 fold
- Fold Change, ITG5 Integrin beta-5 precursor (Table 7): −2.42 fold
- Fold Change, ITGA6 Integrin alpha-6 precursor: No effect
- Fold Change, ITGA7 Integrin alpha-7 precursor: −5.53 fold
- Fold Change, ITGB2 Integrin beta-2-precursor: −3.54 fold
- Fold Change, ITGB4 Integrin beta-4-precursor (Table 3): +3.48 fold
- Fold Change, ITGB4 Integrin beta-4 precursor (Table 7): +3.48 fold
- Fold Change, ITGB5 Integrin beta-5 precursor (Table 3): −2.42 fold
- Fold Change, ITGB6 Integrin beta-6-precursor (Table 3): +7.49 fold
- Fold Change, ITGB6 Integrin beta-6-precursor (Table 7): +7.49 fold
- Fold Change, ITGB8 Integrin beta-8 precursor (Table 3): No effect
- Fold Change, ITGB8 Integrin beta-8 precursor (Table 7): No effect
- Fold Change, ITGBL1 Integrin beta-like 1: −4.38 fold
- Fold Change, Insulin growth factor-like family member 3 precursor (IGBP-3): −7.11 fold
- Fold Change, Insulin growth factor-like family member 4 precursor (IGBP-4): +5.97 fold
- Fold Change, Insulin-like growth factor-binding protein 6 precursor (IGBP-6): +5.89 fold
- Fold Change, JUP Catenin gamma (Junction plakoglobin) (Table 8): +2.43 fold
- Fold Change, JUP Catenin gamma (Table 9): +2.43 fold
- Fold Change, KIF1C Kinesin-like protein KIF1C: +2.47 fold
- Fold Change, KIF2A Kinesin-like protein KIF2A: −3.62 fold
- Fold Change, KIF4A Chromosome-associated kinesin KIF4A: +2.08 fold
- Fold Change, KIF13A Kinsein-like protein KIF13A: −2.27 fold
- Fold Change, KIF13B Kinsein-like protein KIF13B: +2.91 fold
- Fold Change, KIF17 Kinesin-like protein KIF17: +2.18 fold
- Fold Change, KIF26A Kinesin family member 26A: −2.93 fold
- Fold Change, KIFC2 Kinesin-like protein KIFC2: −2.45 fold
- Fold Change, KRT2 Keratin-2; Cytokeratin-2e (CK 2e): −8.37 fold
- Fold Change, KRT5 Keratin-5, Cytokeratin-5 (CK-5): +2.39 fold
- Fold Change, KRT7 Keratin-7; Cytokeratin-7 (CK-7): +8.75 fold
- Fold Change, KRT13 Keratin-13; Cytokeratin-13 (CK-13): +14.17 fold
- Fold Change, KRT15 Keratin-15; Cytokeratin-15 (CK-15): +5.48 fold
- Fold Change, KRT19 Keratin-19; Cytokeratin-19 (CK-19): +11.27 fold
- Fold Change, LAMA3 Laminin subunit alpha-3 precursor (Epiligrin 170 kDa subunit): +4.70 fold
- Fold Change, LAMC2 Laminin subunit gamma-2 precursor (Laminin B2t chain): +2.68 fold
- Fold Change, LRAT Lecithin retinol acyltransferase: +12.3 fold
- Fold Change, LRRC49 Tubulin polyglutamylase complex subunit 4 (PGs4): −2.83 fold
- Fold Change, MC1R, TUBB3 Tubulin beta-3-chain (Tubulin beta-III): +2.99 fold
- Fold Change, MMP9 Matrix metalloprotease-9-precursor: +8.35 fold
- Fold Change, MMP15 Matrix metalloprotease-15 precursor: +3.67 fold
- Fold Change, MMP21 Matrix metalloprotease-21 precursor: No effect
- Fold Change, MMP23A, MMP23B Matrix metalloprotease-23: −5.78 fold
- Fold Change, MMP26 Matrix metalloprotease-26-precursor (MMP-26): +4.31 fold
- Fold Change, MMP28 Matrix metalloprotease-28-precursor: +3.88 fold
- Fold Change, MYH14 Myosin-14: +3.38 fold
- Fold Change, MYL2 Myosin regulatory light chain 2: No effect
- Fold Change, MYO1F Myosin-lf (Myosin-le): +6.29 fold
- Fold Change, MYO6 Myosin-VI: No effect
- Fold Change, Mast/stem cell growth factor receptor precursor (SCFR) (Proto-oncogene tyrosine-protein kinase kit (c-kit)): −3.36 fold
- Fold Change, NDST4 N-heparan sulfate sulfotransferase 4: No effect
- Fold Change, NEIL2 DNA glycosylase/AP lyase Neil2: +12.79 fold
- Fold Change, NF-kappa-B-activating protein: −2.13 fold
- Fold Change, NGRN, TTLL13 Tubulin tyrosine ligase-like family, member 13: +11.61 fold
- Fold Change, NID2 Nidogen-2-precursor: −17.36 fold
- Fold Change, NT5C1B, RDH14 Retinol dehydrogenase 14 (Alcohol dehydrogenase PAN20): −5.33 fold
- Fold Change, Nuclear factor Kappa B p105 unit (NF-kappa-B) (DNA-binding factor KBF 1): −3.62 fold
- Fold Change, PARP2 Poly (ADP-ribose) polymerase 2: +2.08 fold
- Fold Change, PARP9 Poly (ADP-ribose) polymerase 9: +5.92 fold
- Fold Change, PARP12 Poly (ADP-ribose) polymerase 12: +4.69 fold
- Fold Change, PARP15 Poly (ADP-ribose) polymerase 15: +6.37 fold
- Fold Change, PCDH11X Procadherin-11: +3.18 fold
- Fold Change, PCDH18 Procadherin-18-precursor: −2.49 fold
- Fold Change, PCDH19 Procadherin-19-precursor: −3.41 fold
- Fold Change, PCDHB1 Procadherin-beta-1-precursor: No effect
- Fold Change, PCDHB2 Procadherin-beta-2-precursor: No effect
- Fold Change, PCDHB3 Procadherin-beta-3-precursor: −6.57 fold
- Fold Change, PCDHB4 Procadherin-beta-4-precursor: −2.62 fold
- Fold Change, PFN4 Profilin-4 (Profilin IV): +4.77 fold
- Fold Change, PI3 Elastase-specific inhibitor: +2.45 fold
- Fold Change, Protein Kinase B (RAC-alpha serine/threonine-protein kinase) (RAC-PK-alpha): −5.09 fold
- Fold Change, RARB Retinoic acid receptor beta-1: +5.63 fold
- Fold Change, RARG Retinoic acid receptor gama-1: +1.87 fold
- Fold Change, RARRES1 Retinoic acid receptor responder protein 1: +13.25 fold
- Fold Change, RBP1 Cellular Retinol-binding protein-I: +2.6 fold
- Fold Change, RBP2 Cellular Retinol-binding protein-II: No effect
- Fold Change, RBP7 Cellular retinoic acid-binding protein 4: No effect
- Fold Change, RETSAT All-trans-retinol 13,14-reductase precursor: −2.97 fold
- Fold Change, SELE E-selection precursor (Endothelial leukocyte adhesion molecule 1) (ELAM-1): −2.11 fold
- Fold Change, SERPINB1 Leukocyte elastase inhibitor: +3.80 fold
- Fold Change, SIR2-like protein1/NAD-dependent deacetylase sirtuin-1 (hSIRT1): −1.89 fold
- Fold Change, SIR2-like protein2/NAD-dependent deacetylase sirtuin-2: +1.52 fold
- Fold Change, SIR2-like protein7/NAD-dependent deacetylase sirtuin-7: +1.58 fold
- Fold Change, SRRM1 Serine/arginine repetitive matrix protein 1 (SR-related nuclear matrix protein 160 kDa) (SRm160): +3.57 fold
- Fold Change, TBCEL Tubulin-specific chaperone cofactor E-like protein (EL): +2.20 fold
- Fold Change, TTBK1 Tau-tubulin kinase 1: −7.99 fold
- Fold Change, TTLL1 Tubulin polyglutamylase complex subunit 3 (PGs3): +1.92 fold
- Fold Change, TUBB2B Tubulin beta-2B chain: −2.56 fold
- Laminins gene regulation (in words): up-regulate
- Fold Change, ITGA7 Integrin alpha-7 precursor (listed as retinol): significant down-regulatory effect
- Fold Change, ITGB5 Integrin beta-5 precursor (Table 3) (listed as retinol): significant down-regulatory effect
- Fold Change, ITGBL1 Integrin beta-like 1 (listed as retinol): significant down-regulatory effect
- Fold Change, NID2 Nidogen-2-precursor (listed as retinol): significant down-regulation
